Measured values taken from patent US7119217B2, “Tri(alkylcarboxylato)gallium (III) products and pharmaceutical compositions containing them” (Genta Incorporated, priority 2002, dated 2006).

Experiments:
[1] = tested on: Caco-2 monolayer cells; assay: Caco-2 apical to basolateral (A to B) absorption/transport assay; conditions: for % Absorbed: Caco-2 monolayer, 37° C., 5% CO2; for % Absorbed / Trsp: apical to basolateral, 2 hours incubation; for Trsp: Caco-2 transport rate; for Ratio (Caco-2 transport ratio): ratio of the transport rate to the transport rate of the reference compound mannitol
Text: (§1) Values for Caco-2 transport are also expressed herein as transport ratios that represent the ratio of the transport rate for the proband (e.g. tri(alkylcarboxylato) gallium(III) compound) to the transport rate of a reference compound. Mannitol was the reference compound used in the calculation of the Caco-2 transport ratios discussed herein.
(§2) The evaluation protocol of the apical to basolateral (A to B) absorption of a test article in Caco-2 monolayer cells is known to those of skill in the art as follows.
(§3) Caco-2 cells are plated in individual Transwells® in 24-well tissue culture plates and cultured for 3 days to establish the cultures. After 3 days, the cells are tested for transepithelial electrical resistance (TEER) as a measure of the formation of tight junctions between cells. Only cells with a TEER equal to or greater than about 330 Ω·cm^2 cm^2 are used. The proband or the control article (reference) is applied to the apical side of Caco-2 cells and incubated for 2 hours (37° C., 5% CO2). At t=2 hr, the media in each well are collected and stored until later analysis. Aliquots of the dosing solution are retained for analysis along with the samples.
(§4) For test samples, the analysis is repeated three times while the N value for all the control groups is six. The controls are [^3H]propranolol for fast transport and [^3H]mannitol for slow transport.
(§5) The gallium product proband and dosing solution samples are analyzed by inductive coupled plasma optical emission spectrometry (ICP-OCP) to measure gallium concentration. Any non-gallium test articles and dosing solution samples are analyzed by HPLC. Positive controls are analyzed using scintillation counting.

[2] = as above; conditions: human, Caco-2
Text: as §1, §2, §3, §4, §5

With `Cc1occc(=O)c1[O-].Cc1occc(=O)c1[O-].Cc1occc(=O)c1[O-].[Ga+3]` [Gallium Maltolate] the “% Absorbed” value [1] was 24.793%, the Trsp [1] was 107.610 nm/s and the “Ratio (Caco-2 transport ratio)” value [1] was 9.5.
For “Tri(palmitato) Gallium (III) Product [Example 3]”, the “% Absorbed” value [1] was 31.579%, the Trsp [1] was 137.060 nm/s and the “Ratio (Caco-2 transport ratio)” value [1] was 12.1.
In the case of `OC[C@@H](O)[C@@H](O)[C@H](O)[C@H](O)CO` [Mannitol], the Papp A→B at 2 h [2] is reported as 1.13 ×10⁻⁶ cm/s, the “% Absorbed” value [1] is reported as 2.603% and the “Ratio (Caco-2 transport ratio)” value [1] is reported as 1.
In the case of “Tri(palmitato) Gallium (III) Product [Example 2]”, the “% Absorbed” value [1] is reported as 72.000%, the Trsp [1] is reported as 312.500 nm/s and the “Ratio (Caco-2 transport ratio)” value [1] is reported as 27.7.
In the case of `CC(C)NCC(O)COc1cccc2ccccc12` (stereo not drawn) [Propranalol], the “% Absorbed” value [1] is reported as 24.118%, the Trsp [1] is reported as 104.679 nm/s and the “Ratio (Caco-2 transport ratio)” value [1] is reported as 9.3.
In the case of “Tri(octanoato) Gallium (III) Product [Example 1]”, the “% Absorbed” value [1] is reported as 9.890%, the Trsp [1] is reported as 42.930 nm/s and the “Ratio (Caco-2 transport ratio)” value [1] is reported as 3.8.
